Measurements as given in ChEMBL document CHEMBL1123800 (J Med Chem, 1987).

Columns and labels:
Canis familiaris [1] = test: Equieffective dose for heart rate in anesthetized dogs for a maximum dose of 3.0 mg/kg. Values Ranges From:0.7-2; format: functional, Canis lupus familiaris
Canis familiaris [2] = test: Equieffective dose for mean arterial pressure in anesthetized dogs for a maximum dose of 3.0 mg/kg. Values Ranges From:0.1-1.4; format: functional, Canis lupus familiaris, Artery
Canis familiaris [3] = test: Equieffective dose for contractility in anesthetized dogs for a maximum dose of 3.0 mg/kg. Values Ranges From:0.1-0.4; format: functional, Canis lupus familiaris
Mustela putorius furo [4] = species: Mustela putorius furo; test: Inotropic activity as dose required to cause 20% positive or negative change in contractile force of papillary muscle from ferret (F).; format: functional, Muscle tissue
[5] = target: cAMP phosphodiesterase (Canis familiaris); test: Inhibition of canine cardiac cAMP phosphodiesterase (cAMP-PDE)
Canis familiaris [6] = test: Equieffective dose for contractility in anesthetized dogs for a maximum dose of 0.3 mg/kg. Values Ranges From :0.01-0.2; format: functional, Canis lupus familiaris
Canis familiaris [7] = test: Equieffective dose for heart rate in anesthetized dogs for a maximum dose of 0.3 mg/kg. Values Ranges From :0.02-0.2; format: functional, Canis lupus familiaris
Canis familiaris [8] = test: Equieffective dose for mean arterial pressure in anesthetized dogs for a maximum dose of 0.3 mg/kg. 0.07-0.3; format: functional, Canis lupus familiaris, Artery
Canis familiaris [9] = test: Equieffective dose for contractility in anesthetized dogs for a maximum dose of 3.0 mg/kg.; format: functional, Canis lupus familiaris
Canis familiaris [10] = test: Equieffective dose for mean arterial pressure in anesthetized dogs for a maximum dose of 3.0 mg/kg. Values Ranges From: 0.2-2.4; format: functional, Canis lupus familiaris, Artery
Canis familiaris [11] = test: Equieffective dose for heart rate in anesthetized dogs for a maximum dose of 3.0 mg/kg. Values ranges from :0.05-0.2; format: functional, Canis lupus familiaris
Canis familiaris [12] = test: Equieffective dose for heart rate in anesthetized dogs for a maximum dose of 3.0 mg/kg. Values Ranges From :0.08-0.6; format: functional, Canis lupus familiaris
Canis familiaris [13] = test: Equieffective dose for contractility in anesthetized dogs for a maximum dose of 3.0 mg/kg. Values Ranges From :0.05-0.9; format: functional, Canis lupus familiaris
Canis familiaris [14] = test: Equieffective dose for mean arterial pressure in anesthetized dogs for a maximum dose of 3.0 mg/kg. Values Ranges From :0.6-1.5; format: functional, Canis lupus familiaris, Artery
Canis familiaris [15] = test: Equieffective dose for heart rate in anesthetized dogs for a maximum dose of 1.0 mg/kg. Values Ranges From :0.01-0.8; format: functional, Canis lupus familiaris
Canis familiaris [16] = test: Equieffective dose for mean arterial pressure in anesthetized dogs for a maximum dose of 1.0 mg/kg. Values Ranges From :0.2,0.4; format: functional, Canis lupus familiaris, Artery
Canis familiaris [17] = test: Equieffective dose for contractility in anesthetized dogs for a maximum dose of 1.0 mg/kg. Values Ranges From :0.02-0.05; format: functional, Canis lupus familiaris
Canis familiaris [18] = test: Equieffective dose for heart rate in anesthetized dogs for a maximum dose of 3.0 mg/kg. Values Ranges From :0.3-1.0; format: functional, Canis lupus familiaris
Canis familiaris [19] = test: Equieffective dose for mean arterial pressure in anesthetized dogs for a maximum dose of 3.0 mg/kg. Values Ranges From :2.0; format: functional, Canis lupus familiaris, Artery
Canis familiaris [20] = test: Equieffective dose for contractility in anesthetized dogs for a maximum dose of 3.0 mg/kg. Values Ranges From :0.2-1.0; format: functional, Canis lupus familiaris
Canis familiaris [21] = test: Equieffective dose for heart rate in anesthetized dogs for a maximum dose of 0.1 mg/kg. Values Ranges From :0.009-0.02; format: functional, Canis lupus familiaris
Canis familiaris [22] = test: Equieffective dose for mean arterial pressure in anesthetized dogs for a maximum dose of 0.1 mg/kg. Values Ranges From :0.02-0.04; format: functional, Canis lupus familiaris, Artery
Canis familiaris [23] = test: Equieffective dose for contractility in anesthetized dogs for a maximum dose of 0.1 mg/kg. Values Ranges From :0.005-0.07; format: functional, Canis lupus familiaris
Canis familiaris [24] = test: Equieffective dose for contractility in anesthetized dogs for a maximum dose of 1.0 mg/kg. Values Ranges From :0.03-0.07; format: functional, Canis lupus familiaris
Canis familiaris [25] = test: Equieffective dose for heart rate in anesthetized dogs for a maximum dose of 1.0 mg/kg. Values Ranges From :0.04-0.3; format: functional, Canis lupus familiaris
Canis familiaris [26] = test: Equieffective dose for mean arterial pressure in anesthetized dogs for a maximum dose of 1.0 mg/kg. Values Ranges From :0.04-1.0; format: functional, Canis lupus familiaris, Artery
Mustela putorius furo [27] = species: Mustela putorius furo; test: Inotropic activity as dose required to cause 20% positive or negative change in contractile force of papillary muscle from ferret (F); format: functional; settings: Muscle tissue

Row | Structure (SMILES) | C20 (Mustela putorius furo [4]) [µM] | IC50 [5] [µM] | further results
1 | Cc1[nH]c(O)nc1C(=O)c1ccc(-n2ccnc2C)cc1 | 1 | 30 | Heart rate (Canis familiaris [1]): 0.8; Mean arterial blood pressure (Canis familiaris [2]): 0.6; Contractility (LV dP/dt) (Canis familiaris [3]): 0.3
2 | CCc1[nH]c(O)nc1C(=O)c1ccc(-n2ccnc2CCC(C)C)cc1 | 21.7 | 7 | 
3 | CCc1[nH]c(O)nc1C(=O)c1ccc(-n2ccnc2CC)cc1 | 0.1 | 25 | 
4 | CCc1[nH]c(O)nc1C(=O)c1ccc(-c2ncc[nH]2)cc1 | 0.4 | 15 | 
5 | CCCc1nccn1-c1ccc(C(=O)c2[nH]c(O)nc2CC)cc1 | 1 | 29 | 
6 | CCc1[nH]c(O)nc1C(=O)c1ccc(-n2ccnc2C)cc1C | 1.3 | 73 | 
7 | Cc1[nH]c(O)nc1C(=O)c1ccc(-n2ccnc2CO)cc1 | 0.4 | 49 | 
8 | CCc1[nH]c(O)nc1C(=O)c1ccc(-n2ccnc2C(C)C)cc1 | 16.3 | 40 | 
9 | CCc1[nH]c(O)nc1C(=O)c1cccc(-n2ccnc2)c1 | 0.1 | 23 | 
10 | Cc1[nH]c(=O)c(C#N)cc1-c1ccncc1 [MILRINONE] | 0.57 |  | Contractility (LV dP/dt) (Canis familiaris [6]): 0.09; Heart rate (Canis familiaris [7]): 0.06; Mean arterial blood pressure (Canis familiaris [8]): 0.2
11 | Cc1[nH]c(O)nc1C(=O)c1ccc(-n2ccnc2)cc1 | 0.1 | 6 | Contractility (LV dP/dt) (Canis familiaris [9]): <=0.1; Mean arterial blood pressure (Canis familiaris [10]): 0.9; Heart rate (Canis familiaris [11]): 0.1
12 | CCc1[nH]c(O)nc1C(=O)c1ccc(-n2ccnc2)c(C)c1 | 0.05 | 2 | 
13 | O=C1CCC(c2ccc(-n3ccnc3)cc2)=NN1 [IMAZODAN] | 0.3 |  | Heart rate (Canis familiaris [12]): 0.3; Contractility (LV dP/dt) (Canis familiaris [13]): 0.3; Mean arterial blood pressure (Canis familiaris [14]): 1
14 | CCc1[nH]c(O)nc1C(=O)c1ccc(-n2ccnc2C)cc1 | 0.7 |  | Heart rate (Canis familiaris [15]): 0.3; Mean arterial blood pressure (Canis familiaris [16]): 0.3; Contractility (LV dP/dt) (Canis familiaris [17]): 0.03
15 | CSc1ccc(C(=O)c2[nH]c(=O)[nH]c2C)cc1 [ENOXIMONE] | 3.18 |  | Heart rate (Canis familiaris [18]): 0.6; Mean arterial blood pressure (Canis familiaris [19]): 2; Contractility (LV dP/dt) (Canis familiaris [20]): 0.7
16 | CCc1[nH]c(O)nc1C(=O)c1ccc(-n2cc(C)nc2CC)cc1 | 21 | 19 | 
17 | CCc1[nH]c(O)nc1C(=O)c1ccc(-n2ccnc2)cc1 | 0.063 | 2 | Heart rate (Canis familiaris [21]): 0.016; Mean arterial blood pressure (Canis familiaris [22]): 0.03; Contractility (LV dP/dt) (Canis familiaris [23]): 0.02
18 | Cc1nc(=O)c(C#N)c(NCc2cccnc2)[nH]1 [PELRINONE] | 0.23 | 4 | Contractility (LV dP/dt) (Canis familiaris [24]): 0.04; Heart rate (Canis familiaris [25]): 0.1; Mean arterial blood pressure (Canis familiaris [26]): 0.4
19 | CCc1[nH]c(O)nc1C(=O)c1ccc(-n2cc[n+](C)c2C)cc1 |  | > 100 | C20 (Mustela putorius furo [27]): Not reached
20 | CCc1[nH]c(O)nc1C(=O)c1ccc(Cn2ccnc2)cc1 | 4 | 30 | 
21 | CCc1[nH]c(O)nc1C(=O)c1ccc(-n2ccnc2C)c(C)c1 | 0.2 | 2 | 
22 | CCc1[nH]c(O)nc1C(=O)c1ccc(-n2ccnc2)cc1C | 0.2 | 4 | 
23 | Cc1[nH]c(O)nc1C(=O)c1ccc(-c2ncc[nH]2)cc1 | 1.1 | 27 | 
24 | Cc1cn(-c2ccc(C(=O)c3[nH]c(O)nc3C)cc2)cn1 | 11 | 65 | 
25 | Cc1[nH]c(O)nc1C(=O)c1ccc(-n2cnc3ccccc32)cc1 | 11 | 20 | 
26 | Cc1nc(O)[nH]c1C(=O)c1ccc(-n2c(C)nc(C)c2C)cc1 |  | > 100 | C20 (Mustela putorius furo [27]): Not reached
